Laboratory results reported in US9834660B2, “Rare earth metal complexes that excite in the long UV wavelength range” (HONEYWELL INTERNATIONAL INC., priority 2007, dated 2017).

Assay: Lightfastness: fluorescence intensity of dried drops on filter paper before and after SOL2 irradiation (simulated sunlight behind window glass)
Type: physicochemical
Conditions: dried drop on filter paper; for fluorescence intensity after 20 h of irradiation: after 20 h of irradiation (SOL2), 366 nm; for starting fluorescence intensity under 366 nm wavelength: before SOL2 irradiation, formula (IV) 5% solution in water, comparator in ethanol
Excerpt: As used herein, “lightfast,” “lightfastness,” and “light stable” are used interchangeably as measures of the degree of stability of fluorescence when a compound or composition is irradiated with light energy. The lightfastness of the europium complex of formula (IV), Europium[tris-4,4′-[3-[4-(4-sulfophenyl)-2-pyridinyl]-1,2,4-triazine-5,6-diphenyl]-bis-benzenesulfonic acid, trisodium)] chloride, was compared with a known europium diketonate complex, europium tris-benzoyltrifluoro-acetone, as follows: a 5% solution containing formula (IV) (in water) and a solution of europium-tris-benzoyltrifluoro-acetone (in ethanol) were prepared. One drop from each solution was placed onto a piece of filter paper. The drops were dried in air. The dried drops were then irradiated with SOL2 equipment (simulation of sunlight behind window glass). The starting fluorescence intensity under 366 nm wavelength for the drop containing europium-tris-benzoyltrifluoro-acetone was 19.4 cd/m^2, and the starting fluorescence intensity for the drop containing formula (IV) was 11.5 cd/m^2. After 20 h of irradiation at 366 nm, the fluorescence intensity for the drop containing europium-tris-benzoyltrifluoro-acetone had decreased to only 3.2 cd/m^2, as compared with a fluorescence intensity for the drop containing formula (IV) that was 10.7 cd/m^2.
This occurred even though the molar concentration of the solution containing formula (IV) was lower than the molar concentration of europium-tris-benzoyltrifluoro-acetone (2.2×10^−4 mol versus 6×10^−4 mol, respectively).

For “Europium[tris-4,4′-[3-[4-(4-sulfophenyl)-2-pyridinyl]-1,2,4-triazine-5,6-diphenyl]-bis-benzenesulfonic acid, trisodium)] chloride [formula (IV)]”, the “fluorescence intensity after 20 h of irradiation” value was 10.7 cd/m^2 and the “starting fluorescence intensity under 366 nm wavelength” value was 11.5 cd/m^2.
With “europium tris-benzoyltrifluoro-acetone [europium-tris-benzoyltrifluoro-acetone]” the “fluorescence intensity after 20 h of irradiation” value was 3.2 cd/m^2 and the “starting fluorescence intensity under 366 nm wavelength” value was 19.4 cd/m^2.
